Measured values published in paper PMC8611036, “An integrated method for optimized identification of effective natural inhibitors against SARS-CoV-2 3CLpro” (Scientific Reports, 2021).
Non-standard residues stand in square brackets, D forms with d. Residues, ends and D or L forms follow the SMILES beside them. Cha = N[C@@H](CC1CCCCC1)C(=O)O

Experiments:
SARS-CoV 3CLpro [1] = format: biochemical; details: activity class by pIC50 threshold 6
SARS-CoV-2 3CLpro = SARS-CoV-2 3CLpro (Severe acute respiratory syndrome coronavirus 2, UniProt P0DTD1); details: SARS-CoV pIC50 multiplied by similarity index (SI), training set compounds
SARS-CoV 3CLpro [2] = details: SARS-CoV 3CLpro inhibitors (training set), ref: per compound, cited from earlier work; for pIC50: from literature IC50; for IC50: literature values

Structure (SMILES) | Inact.(<6)/Act.(>=6) (SARS-CoV 3CLpro [1]) | further results
NC(=O)c1ccc2c(c1)C(=O)C(=O)N2c1cccc2ccccc12 [CMP118] | Act. (Act.(>=6)) | SI*pIC50 (SARS-CoV-2 3CLpro): 6.584; pIC50 (SARS-CoV 3CLpro [2]): 6.4318; IC50 (SARS-CoV 3CLpro [2]): 0.37 µM
O=C(Oc1cncc(Cl)c1)c1ccco1 [CMP158] | Act. (Act.(>=6)) | SI*pIC50 (SARS-CoV-2 3CLpro): 7.374; pIC50 (SARS-CoV 3CLpro [2]): 7.222; IC50 (SARS-CoV 3CLpro [2]): 0.06 µM
O=C(O)c1ccc(S(=O)(=O)c2cc(Br)c(O)c(Br)c2)cc1 [CMP138] | Inact. (Inact.(<6)) | SI*pIC50 (SARS-CoV-2 3CLpro): 4.948; pIC50 (SARS-CoV 3CLpro [2]): 4.796; IC50 (SARS-CoV 3CLpro [2]): 16 µM
O=C(Oc1cncc(Cl)c1)c1cc2ccccc2[nH]1 [CMP170] | Act. (Act.(>=6)) | SI*pIC50 (SARS-CoV-2 3CLpro): 7.307; pIC50 (SARS-CoV 3CLpro [2]): 7.1549; IC50 (SARS-CoV 3CLpro [2]): 0.07 µM
CN(C)c1ccc(C(=O)N[C@@H](Cc2ccccc2)C(=O)Nc2ccc([N+](=O)[O-])cc2Cl)cc1 [CMP119] | Act. (Act.(>=6)) | SI*pIC50 (SARS-CoV-2 3CLpro): 7.374; pIC50 (SARS-CoV 3CLpro [2]): 7.222; IC50 (SARS-CoV 3CLpro [2]): 0.06 µM
CC(C)c1cc2c(cc1O)[C@@]1(C)CCC[C@@](C)(CO)[C@@H]1CC2 [CMP173] | Inact. (Inact.(<6)) | SI*pIC50 (SARS-CoV-2 3CLpro): 3.808; pIC50 (SARS-CoV 3CLpro [2]): 3.656; IC50 (SARS-CoV 3CLpro [2]): 221 µM
CN1C(=O)C(=O)c2cc(S(=O)(=O)N3CCOCC3)ccc21 [CMP149] | Inact. (Inact.(<6)) | SI*pIC50 (SARS-CoV-2 3CLpro): 5.156; pIC50 (SARS-CoV 3CLpro [2]): 5.004; IC50 (SARS-CoV 3CLpro [2]): 9.91 µM
O=C[C@H](Cc1c[nH]cn1)NC[C@@H]1C[C@H]2CCCC[C@@H]2CN1C(=O)c1ccccc1-c1ccccc1 [CMP261] | Inact. (Inact.(<6)) | 
CC(C)C[C@H](NC(=O)[C@@H](NC(=O)[C@H](C)NC(=O)[C@H](CO)NC(=O)[C@@H](NC(=O)OCc1ccccc1)[C@@H](C)O)C(C)C)C(=O)N[C@H](C#N)CCC(N)=O [CMP231] (HELM PEPTIDE1{[O=C(OCc1ccccc1)[*:2]].T.S.A.V.L.[N#C[C@H](CCC(N)=O)N[*:1]]}$$$$V2.0) | Inact. (Inact.(<6)) | 
O=C(Oc1cncc(Cl)c1)c1ccc(-c2ccc(Cl)cc2)o1 [CMP277] | Act. (Act.(>=6)) | 
O=C(Oc1cncc(Cl)c1)c1cccnc1 [CMP172] | Act. (Act.(>=6)) | 
COC(=O)/C=C/[C@H](C[C@@H]1CCNC1=O)NC(=O)[C@H](CC(C)C)NC(=O)[C@@H](NC(=O)OCc1ccccc1)C(C)C [CMP253] | Inact. (Inact.(<6)) | 
CC(=O)Nc1cnc(SSc2ccccc2[N+](=O)[O-])s1 [CMP271] | Inact. (Inact.(<6)) | 
CC(C)C[C@H](NC(=O)[C@@H](NC(=O)[C@H](C)NC(=O)OC(C)(C)C)C(C)C)C(=O)N[C@H](C#N)CCC(N)=O [CMP229] | Inact. (Inact.(<6)) | 
CN1C(=O)C(=O)c2cc(S(=O)(=O)N3CCN(c4ccccn4)CC3)ccc21 [CMP245] | Inact. (Inact.(<6)) | 
CN1C(=O)C(=O)c2cc(S(=O)(=O)N3CCN(CCc4ccccc4)CC3)ccc21 [CMP244] | Inact. (Inact.(<6)) | 
COc1cccc(C(=O)Oc2cncc(Cl)c2)c1 [CMP171] | Act. (Act.(>=6)) | 
CC1CCN(S(=O)(=O)c2ccc3c(c2)C(=O)C(=O)N3Cc2ccc3ccccc3c2)CC1 [CMP249] | Inact. (Inact.(<6)) | 
Cc1cc(C)nc(SSc2ccccc2[N+](=O)[O-])n1 [CMP274] | Act. (Act.(>=6)) | 
Cc1ccc(C(=O)N/C(=C\c2ccc(-c3ccccc3[N+](=O)[O-])o2)C(=O)NCCCN(C)C)cc1 [CMP284] | Inact. (Inact.(<6)) | 
C=C(Cc1cccc(C)c1)C1=CC=C(c2ccc(C)cc2)C1 [CMP233] | Inact. (Inact.(<6)) | 

Structure (SMILES) | Inact.(<6)/Act.(>=6) (SARS-CoV 3CLpro [1]) | further results
CC(C)COC(=O)Nc1ccc(N(Cc2ccsc2)C(=O)Cn2nnc3ccccc32)cc1 [CMP199] | Inact. (Inact.(<6)) | 
O=C[C@H](Cc1c[nH]cn1)NC[C@@H]1C[C@H]2CCCC[C@@H]2CN1C(=O)c1cccc(-c2ccccc2)c1 [CMP260] | Inact. (Inact.(<6)) | 
O=C1Nc2ccc(S(=O)(=O)N3CCN(c4ccccn4)CC3)cc2C1=O [CMP239] | Inact. (Inact.(<6)) | 
COc1ccc2c(c1)CCC1C2=NN(C(C)=O)C1c1cccc(I)c1 (stereo not drawn) [CMP116] | Inact. (Inact.(<6)) | 
C=C1CC[C@H]2[C@](C)(CO)CCC[C@]2(C)[C@H]1CC/C(C)=C\CO [CMP209] | Inact. (Inact.(<6)) | 
CC(=O)Oc1cc2c(cc1C(C)C)CC[C@H]1[C@](C)(CO)CCC[C@]21C [CMP207] | Inact. (Inact.(<6)) | 
O=C(Nc1ccc(N(Cc2ccsc2)C(=O)Cn2nnc3ccccc32)cc1)C1CC1 [CMP195] | Inact. (Inact.(<6)) | 
O=C(Nc1ccc(Cl)cc1)c1ccc(CN2C(=O)C(=O)c3cc(I)ccc32)s1 [CMP99] |  | SI*pIC50 (SARS-CoV-2 3CLpro): 5.052
CCC(C)(C)NC(=O)[C@@H](c1ccn(C)c1)N(C(=O)Cn1nnc2ccccc21)c1ccc(NC(C)=O)cc1 [CMP254] | Inact. (Inact.(<6)) | 
O=C(Cn1nnc2ccccc21)N(Cc1ccsc1)c1ccc(NCc2ccccc2)cc1 [CMP221] | Inact. (Inact.(<6)) | 
CC1=CC[C@]2(C)CC[C@]3(C)C4=CC=C5C(=CC(=O)C(O)=C5C)[C@]4(C)CC[C@@]3(C)[C@@H]2C1 [CMP200] | Inact. (Inact.(<6)) | 
CC1CCN(S(=O)(=O)c2ccc3c(c2)C(=O)C(=O)N3Cc2ccccc2)CC1 [CMP248] | Inact. (Inact.(<6)) | 
CC(C)C[C@H](NC(=O)[C@@H](NC(=O)[C@H](C)NC(=O)OCc1ccccc1)C(C)C)C(=O)N[C@H](C#N)CCC(N)=O [CMP230] | Inact. (Inact.(<6)) | 
CC(C)(C)NC(=O)C(c1cccnc1)N(C(=O)c1cccs1)c1ccc(C(C)(C)C)cc1 (stereo not drawn) [CMP189] | Inact. (Inact.(<6)) | SI*pIC50 (SARS-CoV-2 3CLpro): 4.453
O=C[C@H](Cc1cnc[nH]1)NC[C@@H]1C[C@H]2CCCC[C@@H]2CN1C(=O)c1ccc(-c2ccccc2)cc1 [CMP259] | Inact. (Inact.(<6)) | 
Cc1ccc(C(=O)N/C(=C\c2ccc(-c3cccc([N+](=O)[O-])c3)o2)C(=O)NCCCN(C)C)cc1 [CMP283] | Inact. (Inact.(<6)) | 
O=C1Nc2ccc(S(=O)(=O)N3CCN(Cc4cccc(Cl)c4)CC3)cc2C1=O [CMP235] | Inact. (Inact.(<6)) | 
CC(=O)N[C@@H](C)C(=O)N[C@H](C(=O)N[C@@H](CC1CCCCC1)C(=O)N[C@H](C=O)Cc1c[nH]cn1)C(C)C [CMP219] (Ac-AV[Cha]H-aldehyde) | Act. (Act.(>=6)) | 
Cc1nnc(SSc2ccccc2[N+](=O)[O-])o1 [CMP273] | Inact. (Inact.(<6)) | 
COc1ncc(-c2ccc(N(Cc3ccsc3)C(=O)Cn3nnc4ccccc43)cc2)cn1 [CMP222] | Inact. (Inact.(<6)) | 
O=[N+]([O-])c1ccccc1SSc1ncccn1 [CMP270] | Act. (Act.(>=6)) | 

Structure (SMILES) | Inact.(<6)/Act.(>=6) (SARS-CoV 3CLpro [1]) | further results
CC(C)(C)NC(=O)C(c1ccncc1)N(C(=O)c1ccco1)c1ccc(C(C)(C)C)cc1 (stereo not drawn) [CMP205] | Inact. (Inact.(<6)) | 
COC(=O)c1nc(SSc2ccccc2[N+](=O)[O-])[nH]c1C [CMP269] | Inact. (Inact.(<6)) | 
Cc1coc2c1C(=O)C(=O)c1c-2ccc2c(C)cccc12 [CMP127] | Inact. (Inact.(<6)) | 
CCOC(=O)c1ccccc1SSc1nc(C(=O)OC)c(C)[nH]1 [CMP264] | Inact. (Inact.(<6)) | 
CN1CCN(S(=O)(=O)c2ccc3c(c2)C(=O)C(=O)N3C)CC1 [CMP241] | Inact. (Inact.(<6)) | 
CC(=O)N[C@@H](CC(N)=O)C(=O)N[C@H](C(=O)N[C@@H](CC1CCCCC1)C(=O)N[C@H](C=O)Cc1c[nH]cn1)C(C)C [CMP217] (Ac-NV[Cha]H-aldehyde) | Inact. (Inact.(<6)) | 
CCC(=O)Nc1ccc(N(Cc2ccsc2)C(=O)Cn2nnc3ccccc32)cc1 [CMP220] | Inact. (Inact.(<6)) | 
O=C(Oc1cncc(Cl)c1)c1ccc(-c2ccccc2[N+](=O)[O-])o1 [CMP281] | Act. (Act.(>=6)) | 
CC1CCCCN1S(=O)(=O)c1ccc2c(c1)C(=O)C(=O)N2 (stereo not drawn) [CMP240] | Inact. (Inact.(<6)) | 
CC(C)(C)NC(=O)C(c1cccnc1)N(C(=O)C1=NC=NC1)c1ccc(C(C)(C)C)cc1 (stereo not drawn) [CMP234] | Inact. (Inact.(<6)) | 
CC(=O)N[C@@H](CO)C(=O)N[C@@H](C)C(=O)N[C@H](C(=O)N[C@@H](CC(C)C)C(=O)N[C@H](C=O)Cc1ccccc1)C(C)C [CMP215] (Ac-SAVLF-aldehyde) | Inact. (Inact.(<6)) | 
O=C1C(=O)N(C/C=C/c2cc3ccccc3s2)c2ccc(I)cc21 [CMP98] |  | SI*pIC50 (SARS-CoV-2 3CLpro): 4.781
O=C[C@H](Cc1cnc[nH]1)NC[C@H]1C[C@@H]2CCCC[C@H]2CN1C(=O)c1ccc(-c2ccccc2)cc1 [CMP257] | Inact. (Inact.(<6)) | 
O=C(Sc1nnc(C(F)(F)F)[nH]1)c1ccc(C#Cc2ccccc2)o1 [CMP143] | Inact. (Inact.(<6)) | 
O=C1NN(c2ccc(Cl)c(Cl)c2)C(=O)/C1=C\c1ccc(-c2ccc(Br)cc2C(=O)O)o1 [CMP104] | Inact. (Inact.(<6)) | 
CC(C)(C)NC(=O)C(c1ccnnc1)N(C(=O)c1ccco1)c1ccc(C(C)(C)C)cc1 (stereo not drawn) [CMP203] | Inact. (Inact.(<6)) | 
COc1ccc(-c2cc(=O)c3c(O)cc(O)cc3o2)cc1-c1c(O)cc(O)c2c(=O)cc(-c3ccc(O)cc3)oc12 [CMP157] | Inact. (Inact.(<6)) | 
CC(C)(C)NC(=O)C(c1cccnc1)N(C(=O)c1cnco1)c1ccc(C(C)(C)C)cc1 (stereo not drawn) [CMP188] | Inact. (Inact.(<6)) | 
COc1cc(CN2CCN(S(=O)(=O)c3ccc4c(c3)C(=O)C(=O)N4)CC2)cc(OC)c1OC [CMP236] | Inact. (Inact.(<6)) | 
CNc1ccc(N(Cc2ccsc2)C(=O)Cn2nnc3ccccc32)cc1 [CMP223] | Inact. (Inact.(<6)) | 
